Measured values as given in ChEMBL document CHEMBL1124314, “Development of phosphonate derivatives of gadolinium chelates for NMR imaging of calcified soft tissues” (J Med Chem, 1989).
Each block holds one compound with its values, some of them ahead of it.

Assays:
Rattus norvegicus [1] = species on record: Rattus norvegicus; test: Biodistribution in rat spleen in the presence of NCAGd/0.01 M lig; assay type: ADME, organism-based; settings: in vivo
Rattus norvegicus [2] = species on record: Rattus norvegicus; test: Biodistribution in rat liver by in the presence of NCAGd/0.01 M lig; assay type: ADME, organism-based; settings: in vivo
Rattus norvegicus [3] = species on record: Rattus norvegicus; test: Uptake of [GD] in bone 1 hr post injection with NCA GD dose; assay type: functional, Bone element
Rattus norvegicus [4] = species on record: Rattus norvegicus; test: Uptake of [GD] in bone 1 h post injection with 0.01 of the compound; assay type: functional, Bone element
Rattus norvegicus [5] = species on record: Rattus norvegicus; test: Biodistribution in rat blood in the presence of NCAGd/0.01 M lig; assay type: ADME, organism-based; settings: in vivo
Rattus norvegicus [6] = species on record: Rattus norvegicus; test: Biodistribution in rat kidney in the presence of NCAGd/0.01 M lig; assay type: ADME, organism-based; settings: in vivo
Rattus norvegicus [7] = species on record: Rattus norvegicus; test: Biodistribution in rat muscle in the presence of NCAGd/0.01 M lig; assay type: ADME, organism-based, Muscle tissue; settings: in vivo
[8] = Ratio of uptake of [GD] in bone 1 hr post injection with 0.01 (N) to that of muscle
Rattus norvegicus [9] = species on record: Rattus norvegicus; test: Biodistribution in rat bone in the presence of NCAGd/0.01 M lig; assay type: ADME, organism-based, Bone element; settings: in vivo
[10] = Ratio of uptake of [GD] in bone 1 hr post injection with 0.01 to that of muscle; assay type: functional
[11] = Ratio of uptake of [GD] in bone 1 hr post injection with 0.01 (N) to that of blood
Rattus norvegicus [12] = species on record: Rattus norvegicus; test: Uptake of [GD] in bone 1 hr post injection with 0.01 (N) of the compound
Rattus norvegicus [13] = species on record: Rattus norvegicus; test: Biodistribution in rat heart in the presence of NCAGd/0.01 M lig; assay type: ADME, organism-based; settings: in vivo
[14] = Ratio of uptake of [GD] in bone 1 hr post injection with 0.0005 to that of blood; assay type: functional
[15] = Ratio of uptake of [GD] in bone 1 hr post injection with 0.0005 to that of muscle; assay type: functional
Rattus norvegicus [16] = species on record: Rattus norvegicus; test: Uptake of [GD] in bone 1 hr post injection with 0.005 of the compound; assay type: functional, Bone element
[17] = Ratio of uptake of [GD] in bone 1 hr post injection with 0.005 to that of muscle; assay type: functional
Rattus norvegicus [18] = species on record: Rattus norvegicus; test: Uptake of [GD] in bone 1 hr post injection with 0.0005 of the compound; assay type: functional, Bone element
[19] = Ratio of uptake of [GD] in bone 1 hr post injection with NCA GD dose to that of blood; assay type: functional
[20] = Ratio of uptake of [GD] in bone 1 hr post injection with 0.005 to that of blood; assay type: functional
Rattus norvegicus [21] = species on record: Rattus norvegicus; test: Uptake of [GD] in bone 1 hr post injection with 0.002 of the compound; assay type: functional, Bone element
[22] = Ratio of uptake of [GD] in bone 1 hr post injection with 0.002 to that of blood; assay type: functional
[23] = Ratio of uptake of [GD] in bone 1 hr post injection with 0.002 to that of muscle; assay type: functional
[24] = Ration of Uptake of [GD] in bone 1 hr post injection with NCA GD dose to that of muscle; assay type: functional
[25] = Uptake of [GD] in bone 1 hr post injection with 0.01 to that of muscle; assay type: functional, Muscle tissue
[26] = Ratio of uptake of [GD] in bone 1 hr post injection with 0.10 to that of muscle; assay type: functional
[27] = Ratio of uptake of [GD] in bone 1 hr post injection with 0.01 to that of blood; assay type: functional
Rattus norvegicus [28] = species on record: Rattus norvegicus; test: Uptake of [GD] in bone 1 hr post injection with 0.10 of the compound; assay type: functional, Bone element
[29] = Ratio of uptake of [GD] in bone 1 hr post injection with 0.10 to that of blood; assay type: functional
[30] = Ratio of uptake of [GD] in bone 1 hr post injection with 0.05 to that of muscle; assay type: functional
Rattus norvegicus [31] = species on record: Rattus norvegicus; test: Uptake of [GD] in bone 1 hr post injection with 0.05 of the compound; assay type: functional, Bone element
[32] = Ratio of uptake of [GD] in bone 1 hr post injection with 0.05 to that of blood; assay type: functional

ID/organ (Rattus norvegicus [1]): 0.13% | ID/organ (Rattus norvegicus [2]): 21.5% | ID/organ (Rattus norvegicus [5]): 2.31% | ID/organ (Rattus norvegicus [6]): 2.75% | ID/organ (Rattus norvegicus [7]): 6.25% | ID/organ (Rattus norvegicus [9]): 59.6% | ID/organ (Rattus norvegicus [13]): 0.315%
Structure (SMILES): CC(CO)NCCNC(C)C(C)O (stereo unspecified)
ID (Rattus norvegicus [3]): 59.6% | ID (Rattus norvegicus [4]): 6.88% | Ratio [8]: 1.55% | Ratio [10]: 1.22% | Ratio [11]: 0.18% | ID (Rattus norvegicus [12]): 3.33%

ID/organ (Rattus norvegicus [1]): 0.44% | ID/organ (Rattus norvegicus [2]): 28.5% | ID/organ (Rattus norvegicus [5]): 3.12% | ID/organ (Rattus norvegicus [6]): 2.87% | ID/organ (Rattus norvegicus [7]): 5.85% | ID/organ (Rattus norvegicus [9]): 51.4% | ID/organ (Rattus norvegicus [13]): 0.295%
Structure (SMILES): CC(O)C(C)NCCNC(C)C(C)O (stereo unspecified)
Ratio [14]: 0.234% | Ratio [15]: 2.19% | ID (Rattus norvegicus [3]): 51.4% | ID (Rattus norvegicus [16]): 5.07% | Ratio [17]: 1.67% | ID (Rattus norvegicus [18]): 6.54% | Ratio [19]: 16.5% | Ratio [20]: 0.167% | ID (Rattus norvegicus [21]): 6.9% | Ratio [22]: 0.206% | Ratio [23]: 1.81% | Ratio [24]: 8.81%

Structure (SMILES): O=C(O)CN(CCN(CC(=O)O)CC(=O)O)CCN(CC(=O)O)CC(=O)NCCCP(=O)(O)OP(=O)(O)O
Ratio [25]: 5.39 | ID (Rattus norvegicus [4]): 22.9% | Ratio [26]: 2.76 | Ratio [27]: 2.12 | ID (Rattus norvegicus [28]): 13.7% | Ratio [29]: 8.56 | Ratio [30]: 3.38 | ID (Rattus norvegicus [31]): 17.6% | Ratio [32]: 6.42
